“And” between values parts separate entries of the source, which are not always exact repeats. Equal values may be shown once.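 48-hour exposure; five concentrations; linearly interpolated endpoints. GI50 is the concentration that inhibits growth by half. Definition used: TGI = concentration required for complete inhibition of growth.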

This assay relates to MDA-MB-468 breast. Nature of the assay: growth of human tumour cells (NCI), 48 h.
As for `CC(C)(C)c1cc(C(=O)Nc2ccc(C(=O)NCCN)cc2)cc(C(C)(C)C)c1`, the GI50 is 1820 nM and the TGI amounted to 3.6 µM.

On to `CCCOc1cc2ccccc2cc1C(=O)Nc1nc(NC)c2c(ccc3nccc32)[nH]1`, for which the GI50 was 275 nM and the TGI is 1.01 µM.

Regarding `CN(C)C(=O)OCc1nc2c(N3CCOCC3)nc(-c3ccccc3)nc2n1C`, the GI50 is 573 nM and the TGI was 1.82 µM.

Take `CC[C@@]1(OC(=O)CN(C)C)C(=O)OCc2c1cc1n(c2=O)Cc2cc3c(N)cccc3nc2-1`: the GI50 is 12.8 nM and the TGI was 0.035 µM.

With `O=C(O)c1cc2ccccc2c2c3c(ccc12)OCO3`, the GI50 was 153000 nM and the TGI was found to be 460 µM.

For `O=C(NCCc1ccccc1)Nc1ccc2cc3ccc(NC(=O)NCCc4ccccc4)cc3nc2c1`, the GI50 was 810 nM and the TGI was found to be 2.27 µM.

Regarding `CO[C@@H]1CCN(c2nccc(Nc3cc4c(C(C)C)ccc(N5CC(CS(C)(=O)=O)[C@H]5C)c4cn3)n2)C[C@@H]1F` (stereo partly drawn), the GI50 is 544 nM and the TGI is 4.11 µM.

Regarding `CN1CCN(c2ccc(OC(F)(F)F)c(Nc3ncc4c(n3)-c3c(c(C(N)=O)nn3CCO)CC4)c2)CC1`, the GI50 is < 10 nM and 32 nM; the TGI is 11.5 µM.

Take `COc1cccc(-c2nn(-c3ccccc3)cc2-c2ccnc(NCCCNC(=O)c3cccc(C(F)(F)F)c3)c2)c1`: the GI50 was 1950 nM and the TGI turned out to be 7.37 µM.

Turning to `N#Cc1ccc(-c2c(-c3ncn[nH]3)sc(N3CCOCC3)c2C#N)c(F)c1`, the GI50 is 242 nM and the TGI worked out at 1.55 µM.

Turning to `Clc1ccc(C2CC(c3cccc(Nc4ccncc4)c3)=NN2c2ccc(Cl)cc2)cc1` (stereo not drawn), the GI50 is 1400 nM and the TGI was 2.92 µM.

Turning to `O=C(CSCC(=O)N/N=C/c1ccccc1O)N/N=C\c1ccccc1O`, the GI50 is 1260 nM and the TGI was 5.85 µM.

In the case of `CCCCCCCCCCCCCCCCCCNCc1ccc(Cl)cc1`, the GI50 is 7870 nM and the TGI came out at 24.8 µM.

Take `Cc1cc(-c2nnc(/C=C/c3ccc4c(c3)OCO4)o2)n[nH]1`: the GI50 was 10900 nM and the TGI was found to be 32.7 µM.

Take `O=C1CC[C@H](N2Cc3c(OCc4ccc(CN5CCOCC5)cc4)cccc3C2=O)C(=O)N1`: the GI50 is greater than 100000 nM and the TGI was greater than 100 µM.

For `O=C(NCCN1CCCC1)c1ccc(-c2nc3ccc4[nH]ncc4c3c3c2CCCC3)cc1`, the GI50 is 356 nM and the TGI came out at 1.38 µM.

Consider `Cc1ccc(Nc2cc(Cl)c([N+](=O)[O-])cc2[N+](=O)[O-])cc1`, for which the GI50 was 1800 nM and the TGI turned out to be 3.58 µM.

With `COc1cc(Cl)cc(-c2nn(-c3cccc(NC(=O)Nc4cccc(C(F)(F)F)c4)c3)cc2-c2ccncc2)c1`, the GI50 is 1050 nM and the TGI is 4.99 µM.

As for `COc1cccc(/C=C/c2nc3c(cnn3-c3ccccc3)c(=O)[nH]2)c1`, the GI50 was 670 nM and the TGI was greater than 100 µM.

For `NCCCCCNc1noc(Cc2c[nH]c3cc(Br)ccc23)n1`, the GI50 is 2130 nM and the TGI was 5.15 µM.

With `O=S(=O)(NCCNc1nccc(-c2c(-c3ccc(F)c(O)c3)nc3sccn23)n1)c1ccc(Cl)cc1`, the GI50 is 2170 nM and the TGI is greater than 50 µM.

As for `O=C(Nc1cccc(-n2cc(-c3ccncc3)c(-c3ccc(O)c(Cl)c3)n2)c1)c1ccc2c(c1)OCCO2`, the GI50 was 6880 nM and the TGI was greater than 100 µM.

Consider `NCCCOc1cc2ccccc2cc1C(=O)Nc1ccc(Cl)cc1OC(=O)c1cc2ccccc2cc1OCCCN`, for which the GI50 is 221 nM and the TGI was determined as 0.573 µM.

With `C/C=C/C/C=C/[C@H](C)C[C@H](O)[C@@H]1C[C@@H]2O[C@H]2/C=C/[C@@H]2OC(C)(C)O[C@H]2/C=C/C[C@H](C)CC(=O)O1`, the GI50 is 17300 nM and the TGI is greater than 100 µM.

Consider `C[C@]12CC[C@@H]3c4ccc(O)cc4CC[C@H]3[C@@H]1CC[C@@H]2NS(=O)(=O)c1ccc(Br)cc1`, for which the GI50 was 3570 nM and the TGI worked out at 11.2 µM.

In the case of `Cc1nc(-c2cc3ccccc3oc2=O)ccc1C(=O)/C=C/c1ccccn1`, the GI50 was greater than 100000 nM and the TGI was greater than 100 µM.

Take `COCCOCCOCc1n(Cc2ccc3ccccc3c2)c2ccccc2[n+]1Cc1ccc2ccccc2c1`: the GI50 is 110 nM and the TGI was 0.659 µM.

Regarding `N#Cc1cnc2cc(OC[C@@H](O)CO)c(NC(=O)C3CCCC3)cc2c1Nc1ccc(OCc2cccc(F)c2)c(Cl)c1`, the GI50 is 611 nM and the TGI is 2.5 µM.

As for `O=C1/C=C/[C@@H](O)[C@@H]2C[C@@H](O)C[C@H]2/C=C/CCC[C@H](CCc2ccc3ncccc3c2)O1`, the GI50 was 65.6 nM and the TGI came to 0.495 µM.

In the case of `COc1ccc(C(C)c2cc(OC)c(OC)c(OC)c2)cc1` (stereo not drawn), the GI50 is 94.5 nM and the TGI was greater than 50 µM.

Consider `Cc1cc(C(=O)/C=C/c2ccc[nH]2)ccc1-n1ccc(C(F)(F)F)n1`, for which the GI50 was 3760 nM and the TGI worked out at 34.9 µM.

For `O=c1c2cc(-c3ccc(F)cc3F)ccc2n(Nc2ccccc2)c(=O)n1-c1cccc(C(F)(F)F)c1`, the GI50 is 1990 nM and the TGI was found to be 5.57 µM.

Regarding `O=C1Nc2cc(-c3cccc(O)c3)ccc2/C1=C/c1ccc[nH]1`, the GI50 is 245 nM and the TGI worked out at 0.805 µM.

For the compound `Nc1c(C(=O)Nc2ccccn2)sc2nc3c(cc12)C(O)CCC3` (stereo not drawn), the GI50 is 1080 nM and the TGI was greater than 50 µM.

`Cc1ccc(S(=O)(=O)OCC#CCOS(=O)(=O)c2ccc(C)cc2)cc1`: the GI50 is 1850 nM and the TGI came to 3.88 µM.

For the compound `CS(=O)(=O)Nc1cc(-c2ccc3ncnc(Nc4ccc(F)c(Cl)c4)c3c2)cnc1Cl`, the GI50 is 236 nM and 210 nM; the TGI was 1.29 µM and 1.02 µM.

With `CCOC(=O)C(Cc1c[nH]c2cc(N(CCO)CCO)ccc12)(NC(C)=O)C(=O)OCC`, the GI50 is 793000 nM and the TGI is greater than 1000 µM.

As for `Cc1ccc(C(=O)c2sc3nc4c(cc3c2N)CCCC4)c(C)c1`, the GI50 is 210 nM and the TGI stood at 8.42 µM.

On to `O=[N+]([O-])c1cccc(-c2nc(-c3ccc(Cl)cc3Cl)cn2-c2ccccc2)c1`, for which the GI50 was 1570 nM and the TGI came to 6.75 µM.

As to `Nc1ncnc2c1ncn2C1OC(COS(N)(=O)=O)C(O)C1O` (stereo not drawn), the GI50 is 2.1 nM and 20.1 nM; the TGI is 0.00465 µM and 0.0422 µM.

As for `Cc1ccc(C(=O)NCCCOc2ccc(N3C(N)=NC(N)=NC3(C)C)cc2Cl)cc1S(=O)(=O)F`, the GI50 was greater than 100000 nM and the TGI is greater than 100 µM.

On to `CNC(=O)c1cc(Oc2cccc3nc(NC(=O)Nc4cc(C(F)(F)F)cc(C(F)(F)F)c4)ccc23)ccn1`, for which the GI50 was 3400 nM and the TGI amounted to 26.6 µM.

Turning to `CCOC(=O)Nc1nc2ccccc2[nH]1`, the GI50 was 2750 nM and 2070 nM; the TGI was > 89.9 µM and 9.09 µM.

In the case of `COc1ccc(/C(C)=N/NC(=O)CSc2nc3ccccc3c(=O)n2CCc2ccc(S(N)(=O)=O)cc2)cc1`, the GI50 was 2300 nM and the TGI stood at 4.85 µM.

For the origin of these results see PubChem BioAssay (NCI).
